In patent publication US6458822B2, “2-oxo-imidazolidine-4-carboxylic acid hydroxamide compounds that inhibit matrix metalloproteinases” (Pfizer Inc., priority 2000, dated 2002):

`COc1ccc(CN2C[C@H](C(=O)NO)NC2=O)cc1` [Example 4, (4R)-1-(4-Methoxybenzyl)-2-oxo-imidazolidine-4-carboxylic Acid Hydroxyamide] showed a melting point of 130 to 133 °C.
